Where two headings read alike, the source gives them in different places.
Experiments:
[1] = system: L. major; assay: ChEMBL dataset of pIC50 values against L. major used for the RF model (Table S1); type: cell-based, Leishmania major; note: call rule not given here
Source text: From the ChEMBL database (https://www.ebi.ac.uk/chembl/, accessed on 10 January 2021), we selected a diverse set of 1085 structures that were initially classified according to their predicted activity against L. major.
Excluding these structures minimized the differences in activity values resulting from errors and differences in experimental protocols. […] Standardizer software [JChem, version 16.11.28 (2016), calculation module developed by ChemAxon, https://www.chemaxon.com/, accessed on 20 January 2021] was used to canonize all simplified molecular-input line-entry system (SMILES) codes. After duplicate structures were removed, those with higher pIC50 values were eliminated, facilitating the generation of more restrictive models.

[2] = system: L. major; parameters: method as in ChEMBL; settings: ref ChEMBL, cited from earlier work
[3] = Active/Inactive class assigned to the ChEMBL pIC50 value for Random forest model construction, ref ChEMBL
[4] = ChemBL structures with pIC50 values used for Random forest model construction, L. major
[5] = Active/Inactive class assigned to ChemBL structures for Random forest model construction (Table S1)
[6] = ChemBL structures with pIC50 values used for Random forest model construction (Table S1)

Row | Structure (SMILES) | Outcome [1, 3] | pIC50 Value [2, 4] | Outcome [1, 5] | pIC50 Value [2, 6]
1 | COc1ccccc1-c1nnc(-c2ccc(C(=O)N/N=C/c3cccc(Cl)c3)cc2)o1 [CHEMBL4096109] | Inactive | 4.68 | – | –
2 | Cc1ccc(C2(c3ccc(C)cc3)C(=O)N(c3ccc(Cl)cc3)C2c2cn(C)c3ccccc23)cc1 (stereo not shown) [CHEMBL2071567] | – | – | Active | 5.94
3 | O=C(CCl)N1c2ccccc2Oc2ccc(C(F)(F)F)cc21 [CHEMBL3759243] | Active | 5.02 | – | –
4 | CCCN(CCC)c1ccc(Nc2c3ccccc3nc3ccccc23)cc1 [CHEMBL88980] | – | – | Active | 6.70
5 | CC(=O)C1=C(CNc2ccc(C(=O)/C=C/c3ccc(N(C)C)cc3)cc2)N(C)C(=O)NC1c1ccccc1 (stereo not shown) [CHEMBL3787141] | – | – | Active | 5.86
6 | COc1ccccc1C(=O)N/N=C/c1cc(O)cc(O)c1 [CHEMBL2382035] | Inactive | 4.55 | – | –
7 | COc1ccc(-c2nc3ccc([N+](=O)[O-])cc3[nH]2)cc1 [CHEMBL1535921] | – | – | Active | 5.50
8 | Cc1cccc2cc(/C=C/C(=O)c3cc(Cl)sc3Cl)c(Cl)nc12 [CHEMBL1940868] | – | – | Active | 5.65
9 | CC(=O)C1=C(CNc2ccc(C(=O)/C=C/c3ccc(O)cc3)cc2)N(C)C(=O)NC1c1ccccc1 (stereo not shown) [CHEMBL3786140] | – | – | Active | 5.98
10 | COc1ccccc1-c1nnc(-c2ccc(C(=O)N/N=C/c3ccc(Cl)cc3Cl)cc2)o1 [CHEMBL4068809] | Active | 5.29 | – | –
11 | C/C(=N/NC(N)=S)c1ccc(OCc2cn(-c3ccc(C(=O)O)cc3)nn2)cc1 [CHEMBL4169531] | Active | 5.13 | – | –
12 | CCCCCCCc1ccc(Nc2c3ccccc3nc3ccccc23)cc1 [CHEMBL316058] | – | – | Active | 6.10
13 | Clc1ccc2c(c1)Nc1ccccc1O2 [CHEMBL1801896] | Inactive | 4.16 | – | –
14 | COc1ccc(-c2ccc3ccccc3c2)c2c1C(C)=N[C@H](C)C2 [CHEMBL1276917] | Inactive | 4.55 | – | –
15 | C[C@H](O)C#CC#CC#CC#CCCCCCCCC(=O)O [CHEMBL487989] | – | – | Active | 5.31
16 | O=C(c1ccc(Cl)cc1)N1CCN(c2nnc(-c3ccc([N+](=O)[O-])s3)s2)CC1 [CHEMBL515851] | Inactive | 4.62 | – | –
17 | COc1ccccc1C(=O)N/N=C/c1ccc(O)cc1O [CHEMBL2382048] | Inactive | 4.05 | – | –
18 | O=C(O)c1ccc(-c2c(-c3ccccc3)nc3ccccn23)cc1 [CHEMBL2151867] | Inactive | 4.00 | – | –
19 | Cn1c([N+](=O)[O-])cnc1-c1nnc(N2CCN(C(=O)c3ccccc3Cl)CC2)s1 [CHEMBL482464] | Inactive | 4.69 | – | –
20 | C=C[C@H]1CN2CCc3c([nH]c4ccccc34)[C@@H]2C[C@@H]1C(/C=C/OC)C(=O)OC (stereo partly shown) [CHEMBL3752140] | – | – | Active | 5.52
21 | COc1ccc(O)c(/C=N/NC(=O)c2ccc(-c3nnc(-c4ccccc4OC)o3)cc2)c1 [CHEMBL4082571] | Inactive | 4.79 | – | –
22 | c1ccc2c(Nc3ccc(CN4CCCC4)cc3)c3ccccc3nc2c1 [CHEMBL91079] | – | – | Active | 6.70
23 | CCCN1CN(CC(=O)OCc2ccccc2)CSC1=S [CHEMBL4289905] | Inactive | 4.03 | – | –
24 | O=[N+]([O-])c1ccc(-c2nnc(N3CCNCC3)s2)o1 [CHEMBL195646] | Active | 5.05 | – | –
25 | O=C(c1ccc(Cl)s1)N1CCN(c2nnc(-c3ccc([N+](=O)[O-])s3)s2)CC1 [CHEMBL464870] | Inactive | 4.62 | – | –
26 | COc1ccc(/C=N/NC(N)=S)cc1OCc1cn(-c2ccc(S(N)(=O)=O)cc2)nn1 [CHEMBL4165645] | – | – | Active | 5.36

Source: article PMC8196580, “Identification of Kaurane-Type Diterpenes as Inhibitors of Leishmania Pteridine Reductase I” (Molecules, 2021)
